Laboratory results published in article PMC5424463, “A strategy based on nucleotide specificity leads to a subfamily-selective and cell-active inhibitor of N ^6-methyladenosine demethylase FTO” (Chemical Science, 2014).
“And” between values parts separate entries of the source, which are not always exact repeats. Equal values may be shown once.

What was measured:
[1] = biological target: T1, ALKBH5 (Homo sapiens, UniProt Q6P6C2); experiment: MALDI-based inhibition assay for ALKBH5, m6A-ssDNA substrate; format: biochemical; settings: read-out: IC50 (ALKBH5)
T1 construct: pNIC28-Bsa4 ALKBH5 (encompassing residues 66-292); made in house; host or cells: E. coli BL21 (DE3) Rosetta T1R
Procedure: MALDI-based inhibition assays for FTO and ALKBH5
The assay was modified from previously reported method.[5] An 8-mer m6A-ssDNA substrate with the sequence 5’-TCA(m6A)CAGC-3’ (Yale University, W.M. Keck Foundation Biotechnology Resource Laboratory) was used in this inhibition assay. The assay was performed in triplicate for each inhibitor, in a final reaction volume of 25 µL. Reaction […]
µM), L-ascorbate (2 mM), m6A-ssDNA substrate (100 µM), in 50 mM HEPES buffer, pH 7.5, and inhibitor at various concentrations (final DMSO concentration not more than 1% v/v of assay mix). The reaction was incubated at room temperature for 30 min, before 1:1 quenching with 20% v/v formic acid. 1 uL of the diluted assay mixture was then mixed with 1 uL of 3-hydroxpicolinic acid (3-HPA, the MALDI-TOF-MS matrix, Sigma-Aldrich) and spotted onto the MALDI-TOF-MS plate before analysis. The 3-HPA matrix was prepared by mixing 9 parts of 50 mg/mL 3-hydroxpicolinic acid in 50% MeCN/Milli-Q H2O with 1 part […]
The percentage inhibition was estimated based on the relative intensities of the methylated substrate and the demethylated product observed in the mass spectra. For IC50 determination, eight different concentrations of […]
the variation in percentage demethylation at different inhibitor concentrations, using nonlinear regression, with normalized dose-response fit on GraphPad Prism 6.0™. […]

[2] = biological target: T2, ALKBH2 (Homo sapiens, UniProt Q6NS38); experiment: Differential scanning fluorimetry (DSF)-based binding assay, ALKBH2; settings: DSF, 100 μM compound, 2 μM protein, 50 μM MnCl2; read-out: Tm shift (ALKBH2)
T2 construct: made in house; host or cells: E. coli BL21 (DE3)
T2 sequence (Q6NS38 56-258): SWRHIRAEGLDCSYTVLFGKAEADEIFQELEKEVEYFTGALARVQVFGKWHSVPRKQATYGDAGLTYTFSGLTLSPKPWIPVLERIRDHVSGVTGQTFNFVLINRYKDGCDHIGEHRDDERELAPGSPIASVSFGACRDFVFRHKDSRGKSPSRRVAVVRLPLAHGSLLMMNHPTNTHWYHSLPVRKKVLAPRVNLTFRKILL
Procedure: (§1) Superdex-200 column (GE Healthcare) pre-equilibrated with 20 mM HEPES, pH 7.5, 300 mM NaCl, 10% (v/v) glycerol, 0.5 mM TCEP. […]
(§2) Differential scanning fluorimetry (DSF)-based binding assay
DSF-based binding assay was performed using a MiniOpticon™ Real-Time PCR Detection System (Bio-Rad), monitoring protein unfolding using SYPRO orange (Invitrogen) according to the reported method.[16] FAM (492 nm) and ROX (610 nm) filters were used for excitation and emission respectively. Reaction mixes contained 2 μM protein, 50 μM MnCl2, 100 μM compounds, 5x SYPRO orange in a final volume of 50 μl. Reagents were prepared in 50mM HEPES buffer, pH 7.5 except metals, which were dissolved as 100 mM stocks in 20 mM HCl, then further diluted in MilliQ water. Compounds tested were prepared in 100% DMSO and added such that the final concentration of DMSO was not more than 1% v/v of assay […]
mix. Fluorescence readings were taken every 1°C in the range 25-95°C, with the temperature increased linearly by 1°C min -1. The software provided was used to perform global minimum subtraction. The inflection point, representing Tm, was calculated by fitting the Boltzmann equation to the sigmoidal curves obtained; data were processed using GraphPad Prism 6.0™.
The Tm shift caused by the addition of small molecules/ fragments was determined by subtraction of the “reference” Tm (protein incubated with metal and 1% v/v DMSO) from the Tm obtained in the presence of the compound. The assay was performed in triplicate for each inhibitor, with standard deviations typically < 1°C. […]

[3] = biological target: T1, ALKBH5; experiment: Differential scanning fluorimetry (DSF)-based binding assay, ALKBH5; settings: 100 μM compound, 2 μM protein, 50 μM MnCl2, read-out: Tm shift (ALKBH5)
Procedure: as §1, §2
(§3) DSF-based binding assay was performed using a MiniOpticon™ Real-Time PCR Detection System (Bio-Rad), monitoring protein unfolding using SYPRO orange (Invitrogen) according […]
(§4) to the reported method.[16] […]
(§5) and emission respectively. Reaction mixes contained 2 μM protein, 50 μM MnCl2, 100 μM […]
(§6) Reagents were prepared in 50mM
(§7) HEPES buffer, pH 7.5 except metals, which were dissolved as 100 mM stocks in 20 mM HCl, then further diluted in MilliQ water. Compounds tested were prepared in 100% DMSO and added such that the final concentration of DMSO was not more than 1% v/v of assay […]
(§8) increased linearly by 1°C min -1. The software provided was used to perform global minimum subtraction. The inflection point, representing Tm, was calculated by fitting the Boltzmann equation to the sigmoidal curves obtained; data were processed using GraphPad Prism 6.0™.
(§9) The Tm shift caused by the addition of small molecules/ fragments was determined by subtraction of the “reference” Tm (protein incubated with metal and 1% v/v DMSO) from the Tm obtained in the presence of the compound. […]

[4] = biological target: T3, FTO (Homo sapiens, UniProt Q9C0B1); experiment: Differential scanning fluorimetry (DSF)-based binding assay, FTO; settings: 100 μM compound, 2 μM protein, 50 μM MnCl2, read-out: Tm shift (FTO)
T3 construct: The human full length FTO construct used in this study; made in house; host or cells: E. coli BL21 (DE3) Rosetta T1R
Procedure: as §1, §2, §3, §4, §5, §6, §7, §8, §9

T1 sequence (Q6P6C2 66-292): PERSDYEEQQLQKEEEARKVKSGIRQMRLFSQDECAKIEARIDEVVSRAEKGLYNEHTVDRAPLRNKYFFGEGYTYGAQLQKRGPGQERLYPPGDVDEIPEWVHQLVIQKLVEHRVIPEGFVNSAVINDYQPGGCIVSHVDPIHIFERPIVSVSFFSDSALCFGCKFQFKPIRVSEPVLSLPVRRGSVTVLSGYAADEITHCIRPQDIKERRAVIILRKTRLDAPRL
T3 sequence (Q9C0B1 whole entry): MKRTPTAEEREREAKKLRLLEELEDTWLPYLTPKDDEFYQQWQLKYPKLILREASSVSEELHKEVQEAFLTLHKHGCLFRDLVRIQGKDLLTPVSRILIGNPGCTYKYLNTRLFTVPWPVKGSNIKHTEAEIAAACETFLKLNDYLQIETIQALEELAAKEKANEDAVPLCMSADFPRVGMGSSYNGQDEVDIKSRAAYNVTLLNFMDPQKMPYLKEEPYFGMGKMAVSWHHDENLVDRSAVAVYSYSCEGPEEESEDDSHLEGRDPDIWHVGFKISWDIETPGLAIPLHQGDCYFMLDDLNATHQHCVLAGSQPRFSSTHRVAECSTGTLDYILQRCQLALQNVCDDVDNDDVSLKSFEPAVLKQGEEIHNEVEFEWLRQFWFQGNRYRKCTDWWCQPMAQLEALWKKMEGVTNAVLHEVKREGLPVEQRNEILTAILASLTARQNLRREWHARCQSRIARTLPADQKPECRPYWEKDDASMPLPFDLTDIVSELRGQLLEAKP

Structure (SMILES)	IC50 [1]	ΔTm at 100 µM [2] [°C]	ΔTm at 100 µM [3] [°C]	ΔTm at 100 µM [4] [°C]
O=C(O)/C=C/C(=O)NNC(=O)c1cnccc1Cc1ccccc1 [Compound 12]	108 µM	4.9	2.7	
O=C(O)/C=C/C(=O)NNC(=O)c1cccnc1 [Compound 21]	168 µM and > 100 µM	2	2.1	
O=C(O)C=CC(=O)NNC(=O)c1cc(Cc2ccccc2)ccn1 [Compound 22]	105 µM	3.7	2.8	3
O=C(O)/C=C/C(=O)NNC(=O)c1ccccn1 [Compound 23]	157 µM	2.3	2.1	2.7
